Assay results: PMC10653080, “Intermolecular Interactions, Solute Descriptors, and Partition Properties of Neutral Per- and Polyfluoroalkyl Substances (PFAS)” (Environmental Science & Technology, 2023)
Read-outs that look alike come from different tables or passages of the source.

Experiment: PP-LFER solute descriptor determination from GC retention and partition coefficient data
Format: physicochemical
Details: for Solute descriptor S (dipolarity/polarizability parameter): final adjusted value, shared within a PFAS group
Text: The GC columns used were, from low to high polarity, HP-5ms Ultra Inert (poly[5% phenyl/95% methyl]siloxane equivalent; Agilent Technologies, Santa Clara, CA), DB-200 (poly[35% trifluoropropyl/65% methyl]siloxane; Agilent Technologies), DB-225ms (poly[50% cyanopropylphenyl/50% methyl]siloxane equivalent; Agilent Technologies), and SolGel-WAX (polyethylene glycol; Trajan, Ringwood, Australia). Column dimensions were all 30 m × 0.25 mm i.d. with a coating thickness of 0.25 μm.
The method for GC retention time measurements follows that of a previous study.[18] Briefly, a 7890A/5975C GC/MS instrument (Agilent Technologies) equipped with an MPS2 autosampler and CIS4 injector (Gerstel, Mülheim an der Ruhr, Germany) was used for all measurements. For each column, isothermal retention times were measured at four temperatures in the range of 30–120 °C to cover all target compounds. The temperature at the injector and transfer line was fixed at 120 °C. The carrier gas was He at a flow rate of 1.2 mL/min. Compounds were introduced into the GC by injecting either headspace (100–250 μL) above the pure compound or solution in acetone (1 μL). Split injections were performed with a split ratio of 20–250. Column dead time (t0) was determined by injecting air and measuring Ar (m/z 40). From the measured retention time (t), the retention factor (k) was calculated as k = (t–t0)/t0. Measurements with t < t0 + 0.1 min were considered too short and discarded. For each column and temperature, k values were obtained for 29–52 PFAS and 29–48 reference compounds.
The standard procedure for solute descriptor determination was as follows. First, the system parameters in eq 1 were calibrated for each column (or partition system) and temperature by MLR using log k (or log K) data and solute descriptors for reference compounds. Dimethylformamide, 1-pentylamine, dimethylsulfoxide, and dodecamethylcyclohexasiloxane (D6) were removed from the log k data sets, because they frequently appeared as outliers (>3 SD) of the PP-LFER model fit. Reference data sets for hexadecane/water partition coefficients (KHxd/w),[21]Kow,[22] and octanol/air partition coefficients (Koa)[23] were taken from the cited references and amended with data for organosilicon compounds.[24],[25] Similar to PFAS, organosilicon compounds have weak van der Waals interaction properties[9] and it may be beneficial to include them in reference data sets. The solute descriptors for PFAS were then back-calculated by using the calibrated PP-LFER equations. Of the five descriptors, V can be calculated from the molecular structure[26] (note: the fragment value for F from Goss et al.[11] was used), and L was available for the PFAS studied.[18] Thus, the left side of eq 2 was known, and MLR was performed to obtain S, A, and B on the right side. [drawing 2] 2 To determine the three descriptors, a minimum of three k and K data are required for a given PFAS compound. The data used here were: k measured for 60 PFAS in this study, KHxd/w for 21 PFAS,[5]Kow for 12 PFAS (see the Results and Discussion section), and Koa for 3 PFAS.[11]
Key to the accurate determination of the polar interaction descriptors is the availability of K data for partition systems with water as a partition phase because water is a strong H-bond donor and acceptor phase and thus the corresponding K values are sensitive to the H-bonding properties of the solute.[27] In particular, at least one solvent/water or air/water partition coefficient is required to determine B because there is no commonly used GC phase that is a significant H-bond donor. In the data set, KHxd/w is sensitive to both A and B and Kow is sensitive to B. However, KHxd/w and Kow data are not available for all PFAS. To increase the number of PFAS for which descriptors can be determined, the following assumptions were made. […]

[1] = 25 °C, updated in the iterative calculation
[2] = difference of descriptor values

Compound: C=C(C)C(=O)OCCC(F)(F)C(F)(F)C(F)(F)C(F)(F)C(F)(F)C(F)(F)C(F)(F)C(F)(F)C(F)(F)C(F)(F)F [10:2 FTMAC, 1H,1H,2H,2H-Perfluorododecyl methacrylate]
- Solute descriptor L (logarithmic hexadecane/air partition coefficient, KHxd/air): 5.671
- Solute descriptor S (dipolarity/polarizability parameter): 0.53

Compound: CCNS(=O)(=O)C(F)(F)C(F)(F)C(F)(F)C(F)(F)C(F)(F)C(F)(F)C(F)(F)C(F)(F)F [EtFOSA, N-Ethylperfluorooctanesulfonamide]
- Solute descriptor L (logarithmic hexadecane/air partition coefficient, KHxd/air): 4.967
- Solute descriptor S (dipolarity/polarizability parameter): 0.88

Compound: NS(=O)(=O)C(F)(F)C(F)(F)C(F)(F)C(F)(F)C(F)(F)C(F)(F)C(F)(F)C(F)(F)F [PFOSA, Perfluorooctanesulfonamide]
- Solute descriptor L (logarithmic hexadecane/air partition coefficient, KHxd/air): 4.744
- Solute descriptor S (dipolarity/polarizability parameter): 0.96

Compound: FC(F)(F)C(F)(F)C(F)(F)C(F)(F)C(F)(F)C(F)(F)C(F)(F)C(F)(F)I [PFOI, Perfluorooctyl iodide]
- Solute descriptor L (logarithmic hexadecane/air partition coefficient, KHxd/air) [1]: 3.068
- Solute descriptor S (dipolarity/polarizability parameter): 0.07

Compound: CC(=O)OCCC(F)(F)C(F)(F)C(F)(F)C(F)(F)C(F)(F)C(F)(F)C(F)(F)C(F)(F)F [8:2 FTAce, 1H,1H,2H,2H-Perfluorodecyl acetate]
- Solute descriptor L (logarithmic hexadecane/air partition coefficient, KHxd/air): 4.234
- Solute descriptor S (dipolarity/polarizability parameter): 0.54

Compound: C=CC(F)(F)C(F)(F)C(F)(F)C(F)(F)C(F)(F)C(F)(F)C(F)(F)C(F)(F)F [8:2 FTO, 1H,1H,2H-Perfluoro-1-decene]
- Solute descriptor L (logarithmic hexadecane/air partition coefficient, KHxd/air) [1]: 2.504
- Solute descriptor S (dipolarity/polarizability parameter): 0.11

Compound: FC(F)(F)C(F)(F)C(F)(F)C(F)(F)C(F)(F)C(F)(F)C(F)(F)C(F)(F)C(F)(F)C(F)(F)CCI [10:2 FTI, 1H,1H,2H,2H-Perfluorododecyl iodide]
- Solute descriptor L (logarithmic hexadecane/air partition coefficient, KHxd/air): 5.020
- Solute descriptor S (dipolarity/polarizability parameter): 0.32

Compound: C=Cc1ccc(C(F)(F)C(F)(F)C(F)(F)C(F)(F)C(F)(F)C(F)(F)C(F)(F)C(F)(F)F)cc1 [PFOSt, 4-(Perfluorooct-1-yl)styrene]
- Solute descriptor L (logarithmic hexadecane/air partition coefficient, KHxd/air): 5.645
- Solute descriptor S (dipolarity/polarizability parameter): 0.32

Compound: NS(=O)(=O)C(F)(F)C(F)(F)C(F)(F)C(F)(F)C(F)(F)C(F)(F)F [PFHxSA, Perfluorohexanesulfonamide]
- Solute descriptor L (logarithmic hexadecane/air partition coefficient, KHxd/air) [1]: 4.189
- Solute descriptor S (dipolarity/polarizability parameter): 0.96

Compound: FC(F)(F)C(F)(F)C(F)(F)C(F)(F)C(F)(F)C(F)(F)C(F)(F)I [PFHpI, Perfluoroheptyl iodide]
- Solute descriptor L (logarithmic hexadecane/air partition coefficient, KHxd/air) [1]: 2.792
- Solute descriptor S (dipolarity/polarizability parameter): 0.07

Compound: CNS(=O)(=O)C(F)(F)C(F)(F)C(F)(F)C(F)(F)C(F)(F)C(F)(F)F [MeFHxSA, N-Methylperfluorohexanesulfonamide]
- Solute descriptor L (logarithmic hexadecane/air partition coefficient, KHxd/air) [1]: 4.135
- Solute descriptor S (dipolarity/polarizability parameter): 0.88

Compound: FC(F)(F)C(F)(F)C(F)(F)C(F)(F)N(C(F)(F)C(F)(F)C(F)(F)C(F)(F)F)C(F)(F)C(F)(F)C(F)(F)C(F)(F)F [PFTBA, Perfluorotributyl amine]
- Solute descriptor L (logarithmic hexadecane/air partition coefficient, KHxd/air) [1]: 2.302
- Solute descriptor S (dipolarity/polarizability parameter): -0.23

Compound: CCNS(=O)(=O)C(F)(F)C(F)(F)C(F)(F)C(F)(F)C(F)(F)C(F)(F)F [EtFHxSA, N-Ethylperfluorohexanesulfonamide]
- Solute descriptor L (logarithmic hexadecane/air partition coefficient, KHxd/air) [1]: 4.400
- Solute descriptor S (dipolarity/polarizability parameter): 0.88

Compound: FC(F)(F)C(F)(F)C(F)(F)C(F)(F)C(F)(F)C(F)(F)C(F)(F)C(F)(F)C(F)(F)C(F)(F)C(F)(F)C(F)(F)F [PFDoD, Perfluorododecane]
- Solute descriptor L (logarithmic hexadecane/air partition coefficient, KHxd/air): 2.362
- Solute descriptor S (dipolarity/polarizability parameter): -0.19

Compound: FC(F)(F)C(F)(F)C(F)(F)C(F)(F)CCI [4:2 FTI, 1H,1H,2H,2H-Perfluorohexyl iodide]
- Solute descriptor L (logarithmic hexadecane/air partition coefficient, KHxd/air) [1]: 3.325
- Solute descriptor S (dipolarity/polarizability parameter): 0.32

Compound: OCCC(F)(F)C(F)(F)C(F)(F)C(F)(F)C(F)(F)C(F)(F)C(F)(F)C(F)(F)C(F)(F)C(F)(F)C(F)(F)C(F)(F)F [12:2 FTOH, 1H,1H,2H,2H-Perfluorotetradecan-1-ol]
- Solute descriptor L (logarithmic hexadecane/air partition coefficient, KHxd/air): 4.682
- Solute descriptor S (dipolarity/polarizability parameter): 0.35

Compound: FC(F)(F)C(F)(I)OC(F)(F)C(F)(F)C(F)(F)F (centres unmarked) [FE-E1-I, 1-(Heptafluoropropoxy)-1,2,2,2-tetrafluoro-1-iodoethane]
- Solute descriptor L (logarithmic hexadecane/air partition coefficient, KHxd/air) [1]: 1.937
- Solute descriptor S (dipolarity/polarizability parameter): 0.06

Compound: FC(OC(F)(F)C(F)(OC(F)(F)C(F)(OC(F)(F)C(F)(OC(F)(F)C(F)(F)C(F)(F)F)C(F)(F)F)C(F)(F)F)C(F)(F)F)C(F)(F)F (centres unmarked) [FE-E4, 1,1,1,2,4,4,5,7,7,8,10,10,11,13,13,14,14,15,15 ,15-Eicosafluoro-5,8,11-tris(trifluoromethyl)-3,6,9,12-tetraoxapentadecane]
- Solute descriptor L (logarithmic hexadecane/air partition coefficient, KHxd/air): 2.542
- Solute descriptor S (dipolarity/polarizability parameter): -0.55

Compound: C=C(C)C(=O)OCCC(F)(F)C(F)(F)C(F)(F)C(F)(F)F [4:2 FTMAC, 1H,1H,2H,2H-Perfluorohexyl methacrylate]
- Solute descriptor L (logarithmic hexadecane/air partition coefficient, KHxd/air) [1]: 3.990
- Solute descriptor S (dipolarity/polarizability parameter): 0.53

Compound: FC(F)C(F)(F)C(F)(F)C(F)(F)C(F)(F)C(F)(F)C(F)(F)C(F)F [1,8-DHPFO, 1H,8H-Perfluorooctane]
- Solute descriptor L (logarithmic hexadecane/air partition coefficient, KHxd/air) [1]: 2.130
- A value higher than perfluorinated counterpart, perfluorooctane [2]: 0.24
- L value higher than perfluorinated counterpart, perfluorooctane [2]: 0.78
- Solute descriptor S (dipolarity/polarizability parameter): 0.38

Compound: FC(OC(F)(F)C(F)(OC(F)(F)C(F)(OC(F)(F)C(F)(F)C(F)(F)F)C(F)(F)F)C(F)(F)F)C(F)(F)F (centres unmarked) [FE-E3, 1,1,1,2,2,3,3-Heptafluoro-3-[(1,1,1,2,3,3-hexafluoro-3-{[1,1,1,2,3,3-hexafluoro-3-(1,2,2,2-tetrafluoroethoxy)-2-propanyl]oxy}-2-propanyl)oxy]propane]
- Solute descriptor L (logarithmic hexadecane/air partition coefficient, KHxd/air): 1.899
- Solute descriptor S (dipolarity/polarizability parameter): -0.33

Compound: C=CCOCC(F)(F)C(F)(F)C(F)(F)C(F)(F)C(F)(F)C(F)(F)C(F)(F)F [AFOE, Allyl 1H,1H-perfluorooctyl ether]
- Solute descriptor L (logarithmic hexadecane/air partition coefficient, KHxd/air) [1]: 3.584
- Solute descriptor S (dipolarity/polarizability parameter): 0.30

Compound: FC(F)(F)C(F)(F)C(F)(F)C(F)(F)C(F)(F)C(F)(F)I [PFHxI, Perfluorohexyl iodide]
- Solute descriptor L (logarithmic hexadecane/air partition coefficient, KHxd/air) [1]: 2.508
- Solute descriptor S (dipolarity/polarizability parameter): 0.07

Compound: OCCC(F)(F)C(F)(F)C(F)(F)C(F)(F)C(F)(F)C(F)(F)C(F)(F)C(F)(F)C(F)(F)C(F)(F)F [10:2 FTOH, 1H,1H,2H,2H-Perfluorododecan-1-ol]
- Solute descriptor L (logarithmic hexadecane/air partition coefficient, KHxd/air): 4.117
- Solute descriptor S (dipolarity/polarizability parameter): 0.35

Compound: C=CC(F)(F)C(F)(F)C(F)(F)C(F)(F)C(F)(F)C(F)(F)F [6:2 FTO, 1H,1H,2H-Perfluoro-1-octene]
- Solute descriptor L (logarithmic hexadecane/air partition coefficient, KHxd/air) [1]: 2.022
- Solute descriptor S (dipolarity/polarizability parameter): 0.11

Compound: FC(F)(F)C(F)(F)C(F)(F)C(F)(F)C(F)(F)C(F)(F)C(F)(F)C(F)(F)C(F)(F)C(F)(F)I [PFDI, Perfluorodecyl iodide]
- Solute descriptor L (logarithmic hexadecane/air partition coefficient, KHxd/air): 3.623
- Solute descriptor S (dipolarity/polarizability parameter): 0.07

Compound: C=CCOC(F)(C(F)(F)F)C(F)(F)F [APFIPE, Allyl perfluoroisopropyl ether]
- Solute descriptor L (logarithmic hexadecane/air partition coefficient, KHxd/air) [1]: 1.717
- Solute descriptor S (dipolarity/polarizability parameter): 0.15
